Values of other authors as cited in patent publication US12582389B2, “Urine preservative composition, device for sampling urine and method for manufacturing a urine sampling device” (VACUTEST KIMA S.R.L., priority 2020, dated 2026).

How the values were obtained:
Klebsiella sp. = details: boric acid 1.5-2% W/V with respect to the sample volume
[1] = urine samples with boric acid

OB(O)O [boric acid]
effect on the most sensitive Gram-negative bacterial strains (Klebsiella sp.): death
pH of urine samples [1]: ~5
